Reference: patent publication US20170369470A1, “Cyclic Compounds and Uses Thereof” (Karyopharm Therapeutics Inc., priority 2014, published 2017)

Tests used:
Assay type in all cases: cell-based
3T3 cells = assay: MTT cell proliferation assay, 3T3 cells; details: NIH3T3; 3T3 fibroblast cells (Swiss mouse embryo); incubation approximately 64-72 hours
Description: (§1) The MTT cell proliferation assay was used to study the cytotoxic properties of the compounds. The assay was performed according to the method described by Roche Molecular Biochemicals, with minor modifications. The assay is based on the cleavage of the tetrazolium salt, MTT, in the presence of an electron-coupling reagent. The water-insoluble formazan salt produced must be solubilized in an additional step. Cells grown in a 96-well tissue culture plate were incubated with the MTT solution for approximately 4 hours. After this incubation period, a water-insoluble formazan dye formed. After solubilization, the formazan dye was quantitated using a scanning multi-well spectrophotometer (ELISA reader). […] The cells were seeded at 5,000-10,000 cells in each well of 96-well plate in 100 μL of fresh culture medium and were allowed to attach overnight. The stock solutions of the compounds were diluted in 100 μL cell culture medium to obtain eight concentrations of each test compound, ranging from 1 nM to 30 μM. […] All optical densities were measured at 490 nm using a Vmax Kinetic Microplate Reader (Molecular Devices). In most cases, the assay was performed in duplicate and the results were presented as a mean percent inhibition to the negative control±SE. The following formula was used to calculate the percent of inhibition: Inhibition (%)=(1−(ODo/OD))×100.
(§2) The compounds were tested against MS751, Z138 and 3T3 cells. The MS751 cell line is derived from a metastasis to lymph node of human cervix from a patient diagnosed with squameous cell carcinoma of the cervix. The Z138 cell line is a mature B-cell acute lymphoblastic leukemia cell line derived from a patient with chronic lumphocytic leukemia. 3T3 cells are standard fibroblast cells; they were originally isolated from Swiss mouse embryo tissue.

MS751 cells = assay: MTT cell proliferation assay, MS751 cells; details: MS751 cells (human cervix squamous cell carcinoma metastasis); incubation approximately 64-72 hours; read-out: MTT Assay IC50 MS 751
Description: as §1, §2

Z138 cells = assay: MTT cell proliferation assay, Z138 cells; details: Homo sapiens, Z-138; Z138 cells (mantle cell lymphoma line); incubation approximately 64-72 hours
Description: as §1, §2

Row | SMILES | IC50 (3T3 cells) [µM] | IC50 (MS751 cells) [µM] | IC50 (Z138 cells) [µM]
1 | Nc1ccc(/C=C/C(=O)NCc2cc3cc(-c4ccc(C(=O)N5CCC(F)(F)C5)cc4)cc(C(F)(F)F)c3s2)cn1 [compound 520, (E)-3-(6-aminopyridin-3-yl)-N-((5-(4-(3,3-difluoropyrrolidine-1-carbonyl)phenyl)-7-(trifluoromethyl)benzo[b]thiophen-2-yl)methyl)acrylamide] | > 10 | 5 to 10 | 1 to 5
2 | Cn1c(CNC(=O)/C=C/c2ccc(N)nc2)cc2cc(-c3ccc(C(=O)N4CCC(F)(F)CC4)cn3)cc(C(F)(F)F)c21 [compound 502, (E)-3-(6-aminopyridin-3-yl)-N-((5-(5-(4,4-difluoropiperidine-1-carbonyl)pyridin-2-yl)-1-methyl-7-(trifluoromethyl)-1H-indol-2-yl)methyl)acrylamide] | > 10 | > 10 | > 10
3 | Nc1ccc(/C=C/C(=O)NCc2cc3cc(-c4ccc(C(=O)N5CCC(F)(F)CC5)cn4)cc(C(F)(F)F)c3s2)cn1 [compound 503, (E)-3-(6-aminopyridin-3-yl)-N-((5-(5-(4,4-difluoropiperidine-1-carbonyl)pyridin-2-yl)-7-(trifluoromethyl)benzo[b]thiophen-2-yl)methyl)acrylamide] | > 10 | 1 to 5 | 1 to 5
4 | Nc1ccc(/C=C/C(=O)NCc2cc3cc(-c4ccc(C(=O)N5CCC(O)(C(F)(F)F)C5)cn4)cc(C(F)(F)F)c3s2)cn1 (stereo not drawn) [compound 509, (E)-3-(6-aminopyridin-3-yl)-N-((5-(5-(3-hydroxy-3-(trifluoromethyl)pyrrolidine-1-carbonyl)pyridin-2-yl)-7-(trifluoromethyl)benzo[b]thiophen-2-yl)methyl)acrylamide] | > 10 | 1 to 5 | < 1
5 | Nc1ccc(/C=C/C(=O)NCc2cc3cc(-c4ccc(C(=O)N5CCOCC5)cc4)cc(Cl)c3s2)cn1 [compound 500, (E)-3-(6-aminopyridin-3-yl)-N-((7-chloro-5-(4-(morpholine-4-carbonyl)phenyl)benzo[b]thiophen-2-yl)methyl)acrylamide] | > 10 | < 1 | < 1
6 | Nc1ccc(/C=C/C(=O)NCc2cc3cc(-c4ccc(C(=O)N5CCC(F)(F)CC5)cn4)cc(C(F)(F)F)c3[nH]2)cn1 [compound 501, (E)-3-(6-aminopyridin-3-yl)-N-((5-(5-(4,4-difluoropiperidine-1-carbonyl)pyridin-2-yl)-7-(trifluoromethyl)-1H-indol-2-yl)methyl)acrylamide] | > 10 | > 10 | > 10
7 | CC1(F)CCN(C(=O)c2ccc(-c3cc(C(F)(F)F)c4sc(CNC(=O)/C=C/c5ccc(N)nc5)cc4c3)nc2)C1 (stereo not drawn) [compound 507, (E)-3-(6-aminopyridin-3-yl)-N-((5-(5-(3-fluoro-3-methylpyrrolidine-1-carbonyl)pyridin-2-yl)-7-(trifluoromethyl)benzo[b]thiophen-2-yl)methyl)acrylamide] | > 10 | 1 to 5 | 1 to 5
8 | Nc1ccc(/C=C/C(=O)NCc2cc3cc(-c4ccc(C(=O)N5CC(F)(F)C5)cc4)cc(C(F)(F)F)c3s2)cn1 [compound 524, (E)-3-(6-aminopyridin-3-yl)-N-((5-(4-(3,3-difluoroazetidine-1-carbonyl)phenyl)-7-(trifluoromethyl)benzo[b]thiophen-2-yl)methyl)acrylamide] | > 10 | > 10 | > 10
9 | Nc1ccc(/C=C/C(=O)NCc2cc3cc(-c4ccc(C(=O)N5CC[C@H](F)C5)cc4)cc(C(F)(F)F)c3s2)cn1 [compound 525, (S,E)-3-(6-aminopyridin-3-yl)-N-((5-(4-(3-fluoropyrrolidine-1-carbonyl)phenyl)-7-(trifluoromethyl)benzo[b]thiophen-2-yl)methyl)acrylamide] | > 10 | 1 to 5 | 1 to 5
10 | CC1(F)CCN(C(=O)c2ccc(-c3cc(C(F)(F)F)c4sc(CNC(=O)/C=C/c5ccc(N)nc5)cc4c3)cc2)C1 (stereo not drawn) [compound 522, (E)-3-(6-aminopyridin-3-yl)-N-((5-(4-(3-fluoro-3-methylpyrrolidine-1-carbonyl)phenyl)-7-(trifluoromethyl)benzo[b]thiophen-2-yl)methyl)acrylamide] | > 10 | 5 to 10 | 1 to 5
11 | Nc1ccc(/C=C/C(=O)NCc2cc3cc(-c4ccc(C(=O)N5CC6(COC6)C5)cc4)cc(C(F)(F)F)c3s2)cn1 [compound 519, (E)-N-((5-(4-(2-oxa-6-azaspiro[3.3]heptane-6-carbonyl)phenyl)-7-(trifluoromethyl)benzo[b]thiophen-2-yl)methyl)-3-(6-aminopyridin-3-yl)acrylamide] | > 10 | < 1 | < 1
12 | Nc1ccc(/C=C/C(=O)NCCc2cc3cc(-c4ccc(C(=O)N5CCC(F)(F)CC5)cn4)cc(C(F)(F)F)c3s2)cn1 [compound 534, (E)-3-(6-aminopyridin-3-yl)-N-(2-(5-(5-(4,4-difluoropiperidine-1-carbonyl)pyridin-2-yl)-7-(trifluoromethyl)benzo[b]thiophen-2-yl)ethyl)acrylamide] | < 1 | < 1 | < 1
13 | CC1(C)COCCN1C(=O)c1ccc(-c2cc(C(F)(F)F)c3sc(CNC(=O)/C=C/c4ccc(N)nc4)cc3c2)nc1 [compound 508, (E)-3-(6-aminopyridin-3-yl)-N-((5-(5-(3,3-dimethylmorpholine-4-carbonyl)pyridin-2-yl)-7-(trifluoromethyl)benzo[b]thiophen-2-yl)methyl)acrylamide] | > 10 | 1 to 5 | 1 to 5
14 | Nc1ccc(/C=C/C(=O)NCc2cc3cc(-c4ccc(C(=O)N5CCOCC5)cn4)cc(C(F)(F)F)c3s2)cn1 [compound 506, (E)-3-(6-aminopyridin-3-yl)-N-((5-(5-(morpholine-4-carbonyl)pyridin-2-yl)-7-(trifluoromethyl)benzo[b]thiophen-2-yl)methyl)acrylamide] | > 10 | 1 to 5 | 1 to 5
15 | Nc1ccc(/C=C/C(=O)NCc2cc3cc(-c4ccc(C(=O)N5CCC(F)(F)CC5)cc4)cc(-c4ccc(F)cc4)c3s2)cn1 [compound 536, (E)-3-(6-aminopyridin-3-yl)-N-((5-(4-(4,4-difluoropiperidine-1-carbonyl)phenyl)-7-(4-fluorophenyl)benzo[b]thiophen-2-yl)methyl)acrylamide] | > 10 | < 1 | < 1
16 | Nc1ccc(/C=C/C(=O)NCc2nc3cc(-c4ccc(C(=O)N5CCC(F)(F)CC5)cn4)cc(C(F)(F)F)c3[nH]2)cn1 [compound 530, (E)-3-(6-aminopyridin-3-yl)-N-((5-(5-(4,4-difluoropiperidine-1-carbonyl)pyridin-2-yl)-7-(trifluoromethyl)-1H-benzo[d]imidazol-2-yl)methyl)acrylamide] | > 10 | > 10 | > 10
17 | Nc1ccc(/C=C/C(=O)NCc2cc3cc(-c4ccc(C(=O)N5CCC(O)(C(F)(F)F)CC5)cn4)cc(C(F)(F)F)c3s2)cn1 [compound 505, (E)-3-(6-aminopyridin-3-yl)-N-((5-(5-(4-hydroxy-4-(trifluoromethyl)piperidine-1-carbonyl)pyridin-2-yl)-7-(trifluoromethyl)benzo[b]thiophen-2-yl)methyl)acrylamide] | > 10 | 1 to 5 | 1 to 5
